Measurements: ChEMBL document CHEMBL4840382, “Novel Substituted Heteroaryl Compounds for Treating Huntington's Disease” (ACS Med Chem Lett, 2021)

Target: Huntingtin (Homo sapiens, UniProt P42858)
Experiment: Inhibition of endogenous Huntingtin protein (unknown origin) incubated for overnight in presence of MW1/MAB2166 monoclonal antibody by ELISA-based MSD electrochemiluminescence assay

Huntingtin, sequence (P42858 whole entry): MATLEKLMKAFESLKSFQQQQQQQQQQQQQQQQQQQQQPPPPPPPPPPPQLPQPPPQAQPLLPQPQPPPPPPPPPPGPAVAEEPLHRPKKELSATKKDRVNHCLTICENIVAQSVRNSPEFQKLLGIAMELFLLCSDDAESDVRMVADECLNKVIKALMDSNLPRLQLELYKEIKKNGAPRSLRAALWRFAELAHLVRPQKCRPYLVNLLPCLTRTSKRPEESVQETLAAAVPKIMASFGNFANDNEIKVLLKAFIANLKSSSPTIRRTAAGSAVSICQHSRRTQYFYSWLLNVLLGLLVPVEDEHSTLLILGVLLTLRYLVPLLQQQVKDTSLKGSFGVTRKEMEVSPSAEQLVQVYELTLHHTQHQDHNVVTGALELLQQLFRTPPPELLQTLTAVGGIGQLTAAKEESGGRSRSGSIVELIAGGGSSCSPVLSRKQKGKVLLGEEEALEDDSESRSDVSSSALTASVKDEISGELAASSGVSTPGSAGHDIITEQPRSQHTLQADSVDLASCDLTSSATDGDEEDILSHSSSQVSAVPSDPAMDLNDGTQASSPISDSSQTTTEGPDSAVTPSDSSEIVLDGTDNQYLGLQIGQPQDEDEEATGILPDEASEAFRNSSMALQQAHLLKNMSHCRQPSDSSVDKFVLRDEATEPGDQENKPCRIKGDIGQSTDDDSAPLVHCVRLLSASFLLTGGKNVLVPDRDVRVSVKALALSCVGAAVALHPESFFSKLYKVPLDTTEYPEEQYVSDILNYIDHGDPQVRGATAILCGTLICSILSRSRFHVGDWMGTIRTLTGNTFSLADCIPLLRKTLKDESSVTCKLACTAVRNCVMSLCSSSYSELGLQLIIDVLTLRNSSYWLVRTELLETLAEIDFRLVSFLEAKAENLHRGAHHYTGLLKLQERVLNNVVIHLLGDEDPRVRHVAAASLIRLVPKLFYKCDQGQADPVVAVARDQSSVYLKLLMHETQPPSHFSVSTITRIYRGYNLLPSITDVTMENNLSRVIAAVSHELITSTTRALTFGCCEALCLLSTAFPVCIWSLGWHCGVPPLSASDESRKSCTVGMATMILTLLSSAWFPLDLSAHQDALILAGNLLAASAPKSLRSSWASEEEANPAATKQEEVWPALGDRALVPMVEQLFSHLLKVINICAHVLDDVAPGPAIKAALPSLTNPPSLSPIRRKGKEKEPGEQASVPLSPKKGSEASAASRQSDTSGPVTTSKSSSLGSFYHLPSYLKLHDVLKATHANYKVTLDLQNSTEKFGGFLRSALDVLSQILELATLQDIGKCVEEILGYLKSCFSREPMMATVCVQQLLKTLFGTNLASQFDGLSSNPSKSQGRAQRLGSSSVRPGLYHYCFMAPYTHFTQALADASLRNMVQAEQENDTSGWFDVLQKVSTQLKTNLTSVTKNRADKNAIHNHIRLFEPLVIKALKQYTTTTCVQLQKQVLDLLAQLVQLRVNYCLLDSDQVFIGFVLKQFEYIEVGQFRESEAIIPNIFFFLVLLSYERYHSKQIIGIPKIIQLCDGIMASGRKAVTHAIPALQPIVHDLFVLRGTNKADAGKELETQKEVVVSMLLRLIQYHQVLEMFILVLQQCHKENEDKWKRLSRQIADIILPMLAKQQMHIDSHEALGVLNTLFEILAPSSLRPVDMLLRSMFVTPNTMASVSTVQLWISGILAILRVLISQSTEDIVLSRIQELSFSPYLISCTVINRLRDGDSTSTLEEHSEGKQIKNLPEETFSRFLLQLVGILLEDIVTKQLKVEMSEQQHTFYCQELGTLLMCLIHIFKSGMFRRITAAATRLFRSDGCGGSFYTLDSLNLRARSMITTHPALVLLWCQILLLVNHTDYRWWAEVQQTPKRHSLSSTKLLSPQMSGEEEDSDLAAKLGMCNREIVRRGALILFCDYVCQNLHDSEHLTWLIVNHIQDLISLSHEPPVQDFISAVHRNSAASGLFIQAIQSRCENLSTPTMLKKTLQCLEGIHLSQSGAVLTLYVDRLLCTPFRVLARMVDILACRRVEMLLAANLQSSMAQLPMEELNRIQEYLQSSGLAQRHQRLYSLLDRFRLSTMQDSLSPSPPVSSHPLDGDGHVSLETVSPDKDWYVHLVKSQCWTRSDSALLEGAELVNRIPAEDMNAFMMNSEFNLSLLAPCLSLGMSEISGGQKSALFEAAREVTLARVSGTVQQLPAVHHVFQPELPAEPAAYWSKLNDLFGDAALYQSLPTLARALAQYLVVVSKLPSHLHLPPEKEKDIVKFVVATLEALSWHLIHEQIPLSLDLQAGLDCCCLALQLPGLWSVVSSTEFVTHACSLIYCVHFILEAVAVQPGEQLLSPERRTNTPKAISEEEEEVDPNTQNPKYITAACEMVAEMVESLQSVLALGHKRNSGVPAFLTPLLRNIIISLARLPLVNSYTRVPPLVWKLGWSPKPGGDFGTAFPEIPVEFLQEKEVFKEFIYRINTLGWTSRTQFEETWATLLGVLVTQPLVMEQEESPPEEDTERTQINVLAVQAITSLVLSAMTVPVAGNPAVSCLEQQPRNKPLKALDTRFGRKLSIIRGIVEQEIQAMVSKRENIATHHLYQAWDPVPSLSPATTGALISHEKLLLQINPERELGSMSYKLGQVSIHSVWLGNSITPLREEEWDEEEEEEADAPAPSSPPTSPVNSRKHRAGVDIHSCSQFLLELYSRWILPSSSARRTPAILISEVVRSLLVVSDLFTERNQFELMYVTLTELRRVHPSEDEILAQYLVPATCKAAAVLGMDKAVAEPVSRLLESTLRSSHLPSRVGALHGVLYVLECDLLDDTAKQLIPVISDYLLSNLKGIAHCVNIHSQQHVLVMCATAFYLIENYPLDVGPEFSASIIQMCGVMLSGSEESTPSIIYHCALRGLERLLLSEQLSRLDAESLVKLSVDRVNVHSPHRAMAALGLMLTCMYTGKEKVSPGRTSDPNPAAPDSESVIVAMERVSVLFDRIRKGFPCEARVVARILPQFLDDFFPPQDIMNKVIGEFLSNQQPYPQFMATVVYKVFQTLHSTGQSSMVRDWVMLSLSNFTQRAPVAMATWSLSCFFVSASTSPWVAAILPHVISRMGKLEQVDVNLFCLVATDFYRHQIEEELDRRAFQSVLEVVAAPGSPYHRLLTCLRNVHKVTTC

| IC50 | SMILES |
| --- | --- |
| 2.1 nM | CC1CN(c2ncc(-c3ccc(-c4cc(F)c5nn(C)cc5c4)cc3O)nn2)CCN1 (stereo unspecified) |
| 1.7 nM | Cn1nc2cc(-c3ccc(-c4cnc(N5CCN[C@@H](C6CC6)C5)nn4)c(O)c3)cnc2n1 |
| 2.3 nM | Cc1cn2cc(-c3ccc(-c4cnc(N5CCN[C@@H](C(C)C)C5)nn4)c(O)c3)ncc2n1 |
| 1.6 nM | Cn1cc2cc(-c3ccc(-c4cnc(N5CCNC(CO)C5)nn4)c(O)c3)cc(F)c2n1 (stereo unspecified) |
| 2.1 nM | Oc1cc(-c2c[nH]nc2F)ccc1-c1cnc(N2CCN[C@@H](C3CC3)C2)nn1 |
| 2.2 nM | CCC1CN(c2ncc(-c3ccc(-c4cc(F)c5nc(C)cn5c4)cc3O)nn2)CCN1 (stereo unspecified) |
